Measurements taken from patent US20080299538A1, “Pathogen Inactivation of Whole Blood” (CARIDIANBCT BIOTECHNOLOGIES, LLC, priority 2003, published 2008).
Read-outs that look alike come from different tables or passages of the source.

Key:
white blood cells (WBCs) [1] = test: WBC proliferation in response to anti-CD3/CD28 (thymidine incorporation); conditions: for % inhibition of proliferation: CD3/28
white blood cells (WBCs) [2] = conditions: for % inhibition of proliferation: Allorecognition: treated responders
white blood cells (WBCs) [3] = test: Cytokine production in response to LPS (Cytometric Bead Assay); conditions: for % inhibition of IFN-γ production / % inhibition of IL-2 production / % inhibition of IL-4 production / % inhibition of IL-5 production / % inhibition of IL-10 production / % inhibition of TNFα production / % inhibition of IL-1β production / % inhibition of IL-6 production / % inhibition of IL-8 production: LPS
canine parvovirus (CPV) = test: Virus inactivation in whole blood; assay type: cell-based; conditions: as a function of illumination energy
[4] = test system: infectious bovine rhinotracheitis virus (IBR); test: Virus inactivation in whole blood; assay type: cell-based; conditions: as a function of illumination energy
white blood cells (WBCs) [5] = conditions: Allostimulation: treated stimulators
white blood cells (WBCs) [6] = test: WBC proliferation in response to PHA (thymidine incorporation)
white blood cells (WBCs) [7] = test: Cytokine production in response to anti-CD3/CD28 (Cytometric Bead Assay)
[8] = inflammatory cytokines, 22 J/mlRBC
[9] = inflammatory cytokines, 33 J/mlRBC
[10] = inflammatory cytokines, 44 J/mlRBC
[11] = anti-CD3/28, 33 J/mlRBC and above, compared to untreated cells
[12] = anti-CD3/28, TH1/TH2 cytokines, 22 J/mlRBC

Cc1cc2nc3c(=O)[nH]c(=O)nc-3n(C[C@H](O)[C@H](O)[C@H](O)CO)c2cc1C [riboflavin, 7,8-dimethyl-10-ribityl isoalloxazine]
% inhibition of proliferation (white blood cells (WBCs) [1]; 22 J/mlRBC): 93 ± 2% | % inhibition of proliferation (white blood cells (WBCs) [1]; 33 J/mlRBC): 99 ± 0% | % inhibition of proliferation (white blood cells (WBCs) [1]; 44 J/mlRBC): 99 ± 0% | induced proliferation of treated WBCs (white blood cells (WBCs) [1]; plate-bound anti-CD3 plus anti-CD28 antibodies, 33 J/mlRBC and above, 3 days of incubation): no detectable induced proliferation | % inhibition of proliferation (white blood cells (WBCs) [2]; 22 J/mlRBC): 95 ± 3% | % inhibition of proliferation (white blood cells (WBCs) [2]; 33 J/mlRBC): 95 ± 2% | % inhibition of proliferation (white blood cells (WBCs) [2]; 44 J/mlRBC): 96 ± 2% | proliferation of treated WBCs in response to allogeneic stimulator cells (white blood cells (WBCs) [2]; treated WBCs as responder cells in MLC): not able to proliferate | inflammatory cytokine production in response to LPS (white blood cells (WBCs) [3]): reduced with treatment, but not to medium control levels | TH1/TH2 cytokine levels induced by LPS (white blood cells (WBCs) [3]; 44 J/mlRBC): reduced to medium control levels | % inhibition of IFN-γ production (white blood cells (WBCs) [3]; TH1/TH2 cytokines, 22 J/mlRBC): 63 ± 71% | % inhibition of IL-2 production (white blood cells (WBCs) [3]; TH1/TH2 cytokines, 22 J/mlRBC): 63 ± 54% | % inhibition of IL-4 production (white blood cells (WBCs) [3]; TH1/TH2 cytokines, 22 J/mlRBC): 59 ± 65% | % inhibition of IL-5 production (white blood cells (WBCs) [3]; TH1/TH2 cytokines, 22 J/mlRBC): 89 ± 2% | % inhibition of IL-10 production (white blood cells (WBCs) [3]; TH1/TH2 cytokines, 22 J/mlRBC): 66 ± 21% | % inhibition of TNFα production (white blood cells (WBCs) [3]; TH1/TH2 cytokines, 22 J/mlRBC): 45 ± 53% | % inhibition of IFN-γ production (white blood cells (WBCs) [3]; TH1/TH2 cytokines, 33 J/mlRBC): 93 ± 8% | % inhibition of IL-4 production (white blood cells (WBCs) [3]; TH1/TH2 cytokines, 33 J/mlRBC): 90 ± 4% | % inhibition of IL-10 production (white blood cells (WBCs) [3]; TH1/TH2 cytokines, 33 J/mlRBC): 94 ± 4% | % inhibition of TNFα production (white blood cells (WBCs) [3]; TH1/TH2 cytokines, 33 J/mlRBC): 94 ± 5% | % inhibition of IFN-γ production (white blood cells (WBCs) [3]; TH1/TH2 cytokines, 44 J/mlRBC): 93 ± 7% | % inhibition of IL-2 production (white blood cells (WBCs) [3]; TH1/TH2 cytokines, 44 J/mlRBC): 88 ± 4% | % inhibition of IL-4 production (white blood cells (WBCs) [3]; TH1/TH2 cytokines, 44 J/mlRBC): 90 ± 4% | % inhibition of IL-5 production (white blood cells (WBCs) [3]; TH1/TH2 cytokines, 44 J/mlRBC): 91 ± 6% | % inhibition of IL-10 production (white blood cells (WBCs) [3]; TH1/TH2 cytokines, 44 J/mlRBC): 99 ± 1% | % inhibition of TNFα production (white blood cells (WBCs) [3]; TH1/TH2 cytokines, 44 J/mlRBC): 94 ± 8% | % inhibition of IL-1β production (white blood cells (WBCs) [3]; [8]): 68 ± 19% | % inhibition of IL-6 production (white blood cells (WBCs) [3]; [8]): 84 ± 8% | % inhibition of IL-8 production (white blood cells (WBCs) [3]; [8]): 85 ± 8% | % inhibition of IL-10 production (white blood cells (WBCs) [3]; [8]): 63 ± 21% | % inhibition of TNFα production (white blood cells (WBCs) [3]; [8]): 54 ± 35% | % inhibition of IL-1β production (white blood cells (WBCs) [3]; [9]): 91 ± 8% | % inhibition of IL-6 production (white blood cells (WBCs) [3]; [9]): 96 ± 3% | % inhibition of IL-8 production (white blood cells (WBCs) [3]; [9]): 96 ± 4% | % inhibition of IL-10 production (white blood cells (WBCs) [3]; [9]): 94 ± 5% | % inhibition of TNFα production (white blood cells (WBCs) [3]; [9]): 92 ± 8% | % inhibition of IL-1β production (white blood cells (WBCs) [3]; [10]): 98 ± 3% | % inhibition of IL-6 production (white blood cells (WBCs) [3]; [10]): 99 ± 1% | % inhibition of IL-8 production (white blood cells (WBCs) [3]; [10]): 99 ± 1% | % inhibition of IL-10 production (white blood cells (WBCs) [3]; [10]): 99 ± 1% | % inhibition of TNFα production (white blood cells (WBCs) [3]; [10]): 98 ± 2% | log reduction of virus (canine parvovirus (CPV)): increases linearly with respect to energy | log reduction of virus [4]: increases linearly with respect to energy | % inhibition of proliferation (white blood cells (WBCs) [5]; 22 J/mlRBC): 93 ± 3% | % inhibition of proliferation (white blood cells (WBCs) [5]; 33 J/mlRBC): 96 ± 2% | % inhibition of proliferation (white blood cells (WBCs) [5]; 44 J/mlRBC): 95 ± 2% | % inhibition of proliferation (white blood cells (WBCs) [6]; 22 J/mlRBC): 98 ± 1% | % inhibition of proliferation (white blood cells (WBCs) [6]; 33 J/mlRBC): 99 ± 1% | induced proliferation of treated WBCs (white blood cells (WBCs) [6]; 33 J/mlRBC and above, 3 days of incubation): no detectable induced proliferation | % inhibition of proliferation (white blood cells (WBCs) [6]; 44 J/mlRBC): 99 ± 0% | inflammatory cytokine production in response to anti-CD3/28 antibodies (white blood cells (WBCs) [7]): significantly reduced | TH1/TH2 cytokine production induced by anti-CD3/28 stimulation (white blood cells (WBCs) [7]; all energies tested): significantly reduced | cytokine production in response to anti-CD3/anti-CD28 antibodies blocked (white blood cells (WBCs) [7]; all energies tested, with the exception of IL-4 and IL-8 at 22 J/mlRBC): > 90% | inhibition of IFN-γ production (white blood cells (WBCs) [7]; [11]): > 90% | inhibition of IL-2 production (white blood cells (WBCs) [7]; [11]): > 90% | inhibition of TNF-α production (white blood cells (WBCs) [7]; [11]): > 90% | % inhibition of IFN-γ production (white blood cells (WBCs) [7]; [12]): 99 ± 1% | % inhibition of IL-2 production (white blood cells (WBCs) [7]; [12]): 91 ± 7% | % inhibition of IL-4 production (white blood cells (WBCs) [7]; [12]): 84% | % inhibition of IL-5 production (white blood cells (WBCs) [7]; [12]): 94 ± 3%
